Source: publication PMC10610038, “New Insights into the Enhancement of Adventitious Root Formation Using N,N′-Bis(2,3-methylenedioxyphenyl)urea” (Plants, 2023)

What was measured:
[1] = target: T1, ZmCKX1 (cytokinin oxidase/dehydrogenase) (Zea mays, UniProt Q9T0N8); experiment: DCPIP reduction assay with purified ZmCKX1, trans-zeatin substrate; Lineweaver-Burk; Ki from IC50 ([…]) by Cheng-Prusoff; format: biochemical
T1 construct: gene CKX1

[2] = target: T1, ZmCKX1 (cytokinin oxidase/dehydrogenase); experiment: DCPIP reduction assay with purified ZmCKX1, trans-zeatin substrate; Ki from IC50 ([…]) by Cheng-Prusoff; format: biochemical

T1 sequence (Q9T0N8 19-534): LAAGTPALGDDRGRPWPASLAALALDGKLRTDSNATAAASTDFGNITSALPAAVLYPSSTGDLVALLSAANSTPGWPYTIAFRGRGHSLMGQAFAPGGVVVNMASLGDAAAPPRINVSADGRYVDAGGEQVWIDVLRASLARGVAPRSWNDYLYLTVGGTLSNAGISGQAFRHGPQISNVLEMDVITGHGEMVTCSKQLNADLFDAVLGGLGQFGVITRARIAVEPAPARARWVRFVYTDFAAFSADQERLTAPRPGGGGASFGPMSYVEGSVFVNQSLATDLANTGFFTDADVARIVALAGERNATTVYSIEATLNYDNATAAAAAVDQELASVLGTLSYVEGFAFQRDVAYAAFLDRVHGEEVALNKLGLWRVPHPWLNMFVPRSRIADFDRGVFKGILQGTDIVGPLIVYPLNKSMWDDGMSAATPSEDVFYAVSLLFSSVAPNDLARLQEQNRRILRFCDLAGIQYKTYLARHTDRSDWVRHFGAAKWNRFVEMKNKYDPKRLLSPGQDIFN

| Structure (SMILES) | Ki [1] | Ki [2] |
| --- | --- | --- |
| O=C(Nc1cccc2c1OCO2)Nc1cccc2c1OCO2 [2,3-MDPU, N,N′-bis-(2,3-methylenedioxyphenyl)urea] | 1600 nM | – |
| O=C(Nc1ccccc1)Nc1cnns1 [TDZ, N-phenyl-N′-(1,2,3-thiadiazol-5-yl)urea] | – | 1400 nM |
